Laboratory results from US10750743B2, “Pyridazinone herbicides” (E.I. DU PONT DE NEMOURS AND COMPANY, priority 2015, dated 2020).

Tests used:
Assay type in all cases: in vivo
[1] = test system: foxtail, giant (giant foxtail, Setaria faberii); assay: Test A preemergence, directed soil spray, visual injury rating; details: 0 is no effect, 100 is complete control
Method in brief: (§1)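 Injury ratings, 0 (no effect) to 100 (complete control), were scored visually versus untreated plants roughly 10 d after treatment under greenhouse conditions. Treatments used surfactant-containing solvent formulations, sprayed onto soil preemergence or onto one- to two-leaf seedlings (2-10 cm) postemergence, grown in a loam-sand mix.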

[2] = test system: ragweed (common ragweed, Ambrosia elatior); assay: as above; details: 0 is no effect, 100 is complete control
Method in brief: as §1

kochia (Kochia scoparia) [3] = assay: as above; details: 0 is no effect, 100 is complete control
Method in brief: as §1

[4] = test system: pigweed (Amaranthus retroflexus); assay: as above; details: 0 is no effect, 100 is complete control
Method in brief: as §1

[5] = test system: ryegrass, It. (Italian ryegrass, Lolium multiflorum); assay: as above; details: 0 is no effect, 100 is complete control
Method in brief: as §1

[6] = test system: barnyardgrass (Echinochloa crus-galli); assay: as above; details: 0 is no effect, 100 is complete control
Method in brief: as §1

corn (Zea mays) = assay: Test A postemergence application, visual injury rating; details: for Corn plant response rating: 0 to 100 scale, 0 no effect, 100 complete control
Method in brief: as §1

[7] = test system: foxtail, giant (giant foxtail, Setaria faberii); assay: as above; details: for Foxtail, Giant plant response rating: 0 to 100 scale, 0 no effect, 100 complete control
Method in brief: as §1

[8] = test system: ragweed (common ragweed, Ambrosia elatior); assay: as above; details: for Ragweed plant response rating: 0 to 100 scale, 0 no effect, 100 complete control
Method in brief: as §1

kochia (Kochia scoparia) [9] = assay: as above; details: for Kochia plant response rating: 0 to 100 scale, 0 no effect, 100 complete control
Method in brief: as §1

[10] = test system: pigweed (Amaranthus retroflexus); assay: as above; details: for Pigweed plant response rating: 0 to 100 scale, 0 no effect, 100 complete control
Method in brief: as §1

[11] = test system: ryegrass, It. (Italian ryegrass, Lolium multiflorum); assay: as above; details: for Ryegrass, It. plant response rating: 0 to 100 scale, 0 no effect, 100 complete control
Method in brief: as §1

[12] = test system: wheat (Triticum aestivum); assay: as above; details: for Wheat plant response rating: 0 to 100 scale, 0 no effect, 100 complete control
Method in brief: as §1

[13] = test system: galium (catchweed bedstraw, Galium aparine); assay: as above; details: for Galium plant response rating: 0 to 100 scale, 0 no effect, 100 complete control
Method in brief: as §1

[14] = test system: barnyardgrass (Echinochloa crus-galli); assay: as above; details: 0 to 100 scale, 0 no effect, 100 complete control
Method in brief: as §1

[15] = test system: blackgrass (Alopecurus myosuroides); assay: as above; details: 0 to 100 scale, 0 no effect, 100 complete control
Method in brief: as §1

rice (Oryza sativa) = assay: Test B flooded paddy test, visual rating; details: Flood, 250 g ai/ha, applied to paddy water, rated after 13 to 15 d
Method in brief: (§2)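 Ratings use a 0-100 visual scale, where 100 is complete control, and compare treated plants with controls after 13 to 15 d of greenhouse growth. Compound went straight into paddy water kept 3 cm over the soil surface, applied to seedlings at the 2-leaf stage.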

[16] = test system: sedge, umbrella (small-flower umbrella sedge, Cyperus difformis); assay: Test B flooded paddy test, visual rating; details: Flood, 250 g ai/ha, applied to paddy water, rated after 13 to 15 d
Method in brief: as §2

[17] = test system: ducksalad (Heteranthera limosa); assay: Test B flooded paddy test, visual rating; details: Flood, 250 g ai/ha, applied to paddy water, rated after 13 to 15 d
Method in brief: as §2

[18] = test system: barnyardgrass (Echinochloa crus-galli); assay: Test B flooded paddy test, visual rating; details: Flood, 250 g ai/ha, applied to paddy water, rated after 13 to 15 d
Method in brief: as §2

[19] = 31 g ai/ha, 0 is no effect, 100 is complete control

Row | SMILES | Plant response rating (0 to 100 scale), Foxtail, Giant ([1]; 125 g ai/ha) | Plant response rating (0 to 100 scale), Ragweed ([2]; 125 g ai/ha) | Plant response rating (0 to 100 scale), Kochia (kochia (Kochia scoparia) [3]; 125 g ai/ha) | Plant response rating (0 to 100 scale), Pigweed ([4]; 125 g ai/ha) | Plant response rating (0 to 100 scale), Ryegrass, It. ([5]; 125 g ai/ha) | Plant response rating (0 to 100 scale), Barnyardgrass ([6]; 125 g ai/ha) | Corn plant response rating (corn (Zea mays); 125 g ai/ha) | Foxtail, Giant plant response rating ([7]; 125 g ai/ha) | Ragweed plant response rating ([8]; 125 g ai/ha) | Kochia plant response rating (kochia (Kochia scoparia) [9]; 125 g ai/ha) | Pigweed plant response rating ([10]; 125 g ai/ha) | Ryegrass, It. plant response rating ([11]; 125 g ai/ha) | Wheat plant response rating ([12]; 125 g ai/ha) | Galium plant response rating ([13]; 125 g ai/ha) | Barnyardgrass plant response rating ([14]; 125 g ai/ha) | Blackgrass plant response rating ([15]; 125 g ai/ha) | Rice plant response rating (0 to 100 scale, 0 is no effect, 100 is complete control) (rice (Oryza sativa)) | Sedge, Umbrella plant response rating (0 to 100 scale, 0 is no effect, 100 is complete control) [16] | Ducksalad plant response rating (0 to 100 scale, 0 is no effect, 100 is complete control) [17] | Barnyardgrass plant response rating (0 to 100 scale, 0 is no effect, 100 is complete control) [18] | other results
1 | CCOC(=O)Oc1c(C)nn(C)c(=O)c1-c1c(C)sc2ncccc12 [Compound 24] | 0 | 0 | 0 | 0 | 10 | 0 | 0 | 0 | 0 | 0 | 0 | 0 | 0 | 0 | 0 | 0 | 0 | 0 | 0 | 0 | Plant response rating (0 to 100 scale), Foxtail, Giant ([1]; 500 g ai/ha): 0; Plant response rating (0 to 100 scale), Ragweed ([2]; 500 g ai/ha): 0; Plant response rating (0 to 100 scale), Kochia (kochia (Kochia scoparia) [3]; 500 g ai/ha): 0; Plant response rating (0 to 100 scale), Pigweed ([4]; 500 g ai/ha): 0; Plant response rating (0 to 100 scale), Ryegrass, It. ([5]; 500 g ai/ha): 20; Plant response rating (0 to 100 scale), Barnyardgrass ([6]; 500 g ai/ha): 0; Corn plant response rating (corn (Zea mays); 500 g ai/ha): 10; Foxtail, Giant plant response rating ([7]; 500 g ai/ha): 0; Ragweed plant response rating ([8]; 500 g ai/ha): 0; Kochia plant response rating (kochia (Kochia scoparia) [9]; 500 g ai/ha): 0; Pigweed plant response rating ([10]; 500 g ai/ha): 10; Ryegrass, It. plant response rating ([11]; 500 g ai/ha): 20; Wheat plant response rating ([12]; 500 g ai/ha): 0; Galium plant response rating ([13]; 500 g ai/ha): 0; Barnyardgrass plant response rating ([14]; 500 g ai/ha): 0; Blackgrass plant response rating ([15]; 500 g ai/ha): 0
2 | Cc1cc2c(-c3c(O)c(C)nn(C)c3=O)c(C)ccc2s1 [Compound 72] | 40 | 90 | 40 | 70 | 100 | 30 | 0 | 60 | 90 | 90 | 90 | 100 | 0 | 100 | 40 | 80 | 0 | 0 | 0 | 0 | Plant response rating (0 to 100 scale), Foxtail, Giant ([1]; 31 g ai/ha): 0; Plant response rating (0 to 100 scale), Ragweed ([2]; 31 g ai/ha): 70; Plant response rating (0 to 100 scale), Kochia (kochia (Kochia scoparia) [3]; 31 g ai/ha): 0; Plant response rating (0 to 100 scale), Pigweed ([4]; 31 g ai/ha): 70; Plant response rating (0 to 100 scale), Ryegrass, It. ([5]; 31 g ai/ha): 90; Plant response rating (0 to 100 scale), Barnyardgrass ([6]; 31 g ai/ha): 0; Plant response rating (0 to 100 scale), Corn (corn (Zea mays); [19]): 0; Plant response rating (0 to 100 scale), Foxtail, Giant [7, 19]: 30; Plant response rating (0 to 100 scale), Ragweed [8, 19]: 70; Plant response rating (0 to 100 scale), Kochia (kochia (Kochia scoparia) [9]; [19]): 70; Plant response rating (0 to 100 scale), Pigweed [10, 19]: 90; Plant response rating (0 to 100 scale), Ryegrass, It. [11, 19]: 90; Plant response rating (0 to 100 scale), Wheat [12, 19]: 0; Plant response rating (0 to 100 scale), Galium [13, 19]: 90; Barnyardgrass plant response rating ([14]; 31 g ai/ha): 30; Blackgrass plant response rating ([15]; 31 g ai/ha): 40
3 | Cc1cc2c(Cl)ccc(-c3c(O)c(C)nn(C)c3=O)c2o1 [Compound 43] | 40 | 30 | 0 | 0 | 80 | 30 | 0 | 0 | 20 | 0 | 0 | 80 | 10 | 80 | 10 | 50 | 0 | 35 | 40 | 0 | Plant response rating (0 to 100 scale), Foxtail, Giant ([1]; 31 g ai/ha): 10; Plant response rating (0 to 100 scale), Ragweed ([2]; 31 g ai/ha): 30; Plant response rating (0 to 100 scale), Kochia (kochia (Kochia scoparia) [3]; 31 g ai/ha): 0; Plant response rating (0 to 100 scale), Pigweed ([4]; 31 g ai/ha): 0; Plant response rating (0 to 100 scale), Ryegrass, It. ([5]; 31 g ai/ha): 60; Plant response rating (0 to 100 scale), Barnyardgrass ([6]; 31 g ai/ha): 10; Corn plant response rating (corn (Zea mays); 31 g ai/ha): 0; Foxtail, Giant plant response rating ([7]; 31 g ai/ha): 0; Ragweed plant response rating ([8]; 31 g ai/ha): 0; Kochia plant response rating (kochia (Kochia scoparia) [9]; 31 g ai/ha): 0; Pigweed plant response rating ([10]; 31 g ai/ha): 0; Ryegrass, It. plant response rating ([11]; 31 g ai/ha): 50; Wheat plant response rating ([12]; 31 g ai/ha): 0; Galium plant response rating ([13]; 31 g ai/ha): 70; Barnyardgrass plant response rating ([14]; 31 g ai/ha): 0; Blackgrass plant response rating ([15]; 31 g ai/ha): 0
